Results published in US5582986A, “Antisense oligonucleotide inhibition of the ras gene” (Isis Pharmaceuticals, Inc., priority 1994, dated 1996).

Legend:
[1] = test system: normal (wild-type) H-ras-luciferase reporter gene in HeLa cells; assay: ras-luciferase reporter gene expression, normal (wild-type) form, transient transfection; type: cell-based, human; details: dose-response, luciferase activity as % of untreated transfected cells, read-out: IC50, inhibition of ras-luciferase activity, normal form
[2] = test system: mutant (activated, codon-12) H-ras-luciferase reporter gene in HeLa cells; assay: ras-luciferase reporter gene expression, mutant (codon-12, activated) form, transient transfection; type: cell-based, human

## 2570: phosphorothioate 17-mer CCA-CAC-CGA-CGG-CGC-CC, targeted to the codon-12 point mutation of activated H-ras RNA (antisense CCACACCGACGGCGCCC; all phosphorothioate, sugars by position and methylation of C not given here) [Oligo 2570]
[1]
  IC50: ~250 nM
[2]; at low concentrations, dose-response (FIG. 2)
  selectivity toward the mutant form of ras-luciferase as compared to the normal form: approximately threefold
[2]; dose-response, HeLa cells, luciferase activity as % of untreated transfected cells, read-out: IC50, inhibition of ras-luciferase activity, mutant form
  IC50: ~100 nM
[2]; single dose 100 nM, HeLa cells, cationic lipid (FIG. 6)
  inhibition of mutant ras-luciferase relative to wild-type: four-fold
[2]; single dose 0.5 μM (FIG. 3, FIG. 4)
  selectivity toward the mutated form of ras-luciferase as compared to the normal form (in words): displayed selectivity toward the mutated form
